Laboratory results as given in US20240368096A1 (Enanta Pharmaceuticals, Inc., priority 2022, published 2024).

What follows are molecules tested on HBV (assay: HBV infection in HepG2-NTCP cells (HBeAg AlphaLISA in supernatants)). Conditions: Hepatitis B virus, 192 h; HBV infection of HepG2-NTCP cells; HBeAg in supernatants at day 8 post infection; read-out: Cellular EC50.
Format: cell-based
Method in brief: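 Readout was day-8 supernatant HBeAg by AlphaLISA, with EC50 set against DMSO controls and binned A<0.1 μM, B 0.1-1 μM, C>1 μM. Compounds were added 2 h before HBV (2000 GE/cell, 4% PEG, 0.5% DMSO) to HepG2-NTCP A3 cells; from day 1 medium held 2.5% DMSO.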

Structure (SMILES)	EC50 [µM]
CC(C)Oc1ccccc1COc1cc2c(cc1-c1cc(F)c(C(=O)O)s1)S(=O)(=O)N(C)[C@H](C1CCCCC1)CN2c1ccccc1 [Example 505]	< 0.1
CN1[C@H](C2CCCCC2)CN(c2ccccc2)c2cc(OCc3ccc(OC(F)(F)F)cc3)c(-c3cc(F)c(C(=O)O)s3)cc2S1(=O)=O [Example 507]	< 0.1
CN1[C@H](C2CCCCC2)CN(c2ccccc2)c2cc(OCc3ccccc3)c(-c3cc(F)c(C(=O)O)s3)cc2S1(=O)=O [Example 508]	< 0.1
CN1[C@H](C2CCCCC2)CN(c2ccccc2)c2cc(OCc3ccccc3C#N)c(-c3cc(F)c(C(=O)O)s3)cc2S1(=O)=O [Example 510]	< 0.1
CN1[C@H](C2CCCCC2)CN(c2ccccc2)c2cc(OCc3cccc(OC(F)(F)F)c3)c(-c3cc(F)c(C(=O)O)s3)cc2S1(=O)=O [Example 511]	0.1 to 1
Cc1cc(-c2cc3c(cc2OC2CCC2)N(c2ccccc2)C[C@@H](C2CCCCC2)N(C)S3(=O)=O)sc1C(=O)O [Example 513, (R)-5-(7-cyclobutoxy-3-cyclohexyl-2-methyl-1,1-dioxido-5-phenyl-2,3,4,5-tetrahydrobenzo[f][1,2,5]thiadiazepin-8-yl)-3-methylthiophene-2-carboxylic acid]	< 0.1
COCCOc1cc2c(cc1-c1cc(NC(=O)OC(C)(C)C)c(C(=O)O)s1)S(=O)(=O)N(C)[C@H](C1CCCCC1)CN2c1ccccc1 [Example 515, (R)-3-((tert-butoxycarbonyl)amino)-5-(3-cyclohexyl-7-(2-methoxyethoxy)-2-methyl-1,1-dioxido-5-phenyl-2,3,4,5-tetrahydrobenzo[f][1,2,5]thiadiazepin-8-yl)thiophene-2-carboxylic acid]	< 0.1
COCCOc1cc2c(cc1-c1cc(NC(=O)OCC(C)C)c(C(=O)O)s1)S(=O)(=O)N(C)[C@H](C1CCCCC1)CN2c1ccccc1 [Example 516, (R)-5-(3-cyclohexyl-7-(2-methoxyethoxy)-2-methyl-1,1-dioxido-5-phenyl-2,3,4,5-tetrahydrobenzo[f][1,2,5]thiadiazepin-8-yl)-3-((isobutoxycarbonyl)amino)thiophene-2-carboxylic acid]	< 0.1
CCOC(=O)Nc1cc(-c2cc3c(cc2OCCOC)N(c2ccccc2)C[C@@H](C2CCCCC2)N(C)S3(=O)=O)sc1C(=O)O [Example 517]	< 0.1
COCCOc1cc2c(cc1-c1cc(NC(=O)OCC3CC(F)(F)C3)c(C(=O)O)s1)S(=O)(=O)N(C)[C@H](C1CCCCC1)CN2c1ccccc1 [Example 519]	< 0.1
CCCC[C@@H]1CN(c2ccccc2)c2cc(N3CCCC3)c(-c3ccc(F)c(C(=O)O)c3)cc2S(=O)(=O)N1C [Example 520, (R)-5-(3-butyl-2-methyl-1,1-dioxido-5-phenyl-7-(pyrrolidin-1-yl)-2,3,4,5-tetrahydrobenzo[f][1,2,5]thiadiazepin-8-yl)-2-fluorobenzoic acid]	0.1 to 1
CCCC[C@@H]1CN(c2ccccc2)c2cc(Nc3ccccc3F)c(-c3ccc(F)c(C(=O)O)c3)cc2S(=O)(=O)N1C [Example 522]	< 0.1
CCCC[C@@H]1CN(c2ccccc2)c2cc(F)c(-c3ccc(N(C)C)c(C(=O)O)c3)cc2S(=O)(=O)N1C [Example 523]	0.1 to 1
CCCC[C@@H]1CN(c2ccccc2)c2cc(-n3nnnc3C)c(-c3ccc(F)c(C(=O)O)c3)cc2S(=O)(=O)N1C [Example 525]	> 1
CCCC[C@@H]1CN(c2ccccc2)c2cc(-n3cncn3)c(-c3ccc(F)c(C(=O)O)c3)cc2S(=O)(=O)N1C [Example 526]	< 0.1
CCCC[C@@H]1CN(c2ccccc2)c2cc(-n3cnc4ccccc43)c(-c3ccc(F)c(C(=O)O)c3)cc2S(=O)(=O)N1C [Example 527]	0.1 to 1

Structure (SMILES)	EC50 [µM]
CCCCCNc1cc2c(cc1-c1ccc(F)c(C(=O)O)c1)S(=O)(=O)N(C)[C@H](C1CCCCC1)CN2c1ccccc1 [Example 528]	< 0.1
CO[C@@H]1CCN(c2cc3c(cc2-c2ccc(F)c(C(=O)O)c2)S(=O)(=O)N(C)[C@H](C2CCCCC2)CN3c2ccccc2)C1 [Example 531]	< 0.1
CC(=O)N1CCN(c2cc3c(cc2-c2ccc(F)c(C(=O)O)c2)S(=O)(=O)N(C)[C@H](C2CCCCC2)CN3c2ccccc2)CC1 [Example 535]	0.1 to 1
COCCN(C)c1cc2c(cc1-c1ccc(F)c(C(=O)O)c1)S(=O)(=O)N(C)[C@H](C1CCCCC1)CN2c1ccccc1 [Example 537]	0.1 to 1
CCCC[C@H]1CN(c2ccccc2)c2cc(Nc3ccccc3F)c(-c3cccc(C(=O)O)c3)cc2S(=O)(=O)N1C [Example 539]	> 1
CCCC[C@H]1CN(c2ccccc2)c2cc(N3CCCCC3)c(-c3cccc(C(=O)O)c3)cc2S(=O)(=O)N1C [Example 540]	> 1
CCCC[C@H]1CN(c2ccccc2)c2cc(N(C)c3ccc(F)cc3)c(-c3cccc(C(=O)O)c3)cc2S(=O)(=O)N1C [Example 541]	> 1
CCCC[C@H]1CN(c2ccccc2)c2cc(N(C)C)c(-c3cccc(C(=O)O)c3)cc2S(=O)(=O)N1C [Example 542]	> 1
CC(C)CC1CN(c2ccccc2)c2cc(N3CCCCC3)c(-c3cccc(C(=O)O)c3)cc2S(=O)(=O)N1C (stereo not drawn) [Example 545]	< 0.1
CC(C)C[C@@H]1CN(c2ccccc2)c2cc(Nc3ccccc3F)c(-c3ccc(Cl)c(C(=O)O)c3)cc2S(=O)(=O)N1C [Example 546]	0.1 to 1
CC(C)C[C@@H]1CN(c2ccccc2)c2cc(Nc3ccc(F)cc3)c(-c3ccc(Cl)c(C(=O)O)c3)cc2S(=O)(=O)N1C [Example 548]	0.1 to 1
CC(C)C[C@@H]1CN(c2ccccc2)c2cc(N3CCc4cccc(F)c43)c(-c3ccc(Cl)c(C(=O)O)c3)cc2S(=O)(=O)N1C [Example 553]	0.1 to 1
CC(C)C[C@@H]1CN(c2ccccc2)c2cc(N(C)c3ccc(F)cc3)c(-c3ccc(Cl)c(C(=O)O)c3)cc2S(=O)(=O)N1C [Example 554]	0.1 to 1
CC(C)C[C@@H]1CN(c2ccccc2)c2cc(N(C)c3cccc(F)c3)c(-c3ccc(Cl)c(C(=O)O)c3)cc2S(=O)(=O)N1C [Example 555]	0.1 to 1
CC(C)C[C@@H]1CN(c2ccccc2)c2cc(N(C)c3ccccc3F)c(-c3ccc(Cl)c(C(=O)O)c3)cc2S(=O)(=O)N1C [Example 556]	0.1 to 1
CC(C)C[C@@H]1CN(c2ccccc2)c2cc(N3CCCc4ccccc43)c(-c3ccc(Cl)c(C(=O)O)c3)cc2S(=O)(=O)N1C [Example 557]	0.1 to 1

More lines, now with the values ahead:

EC50 [µM]	Structure (SMILES)
< 0.1	CC(C)Oc1cccc(COc2cc3c(cc2-c2cc(F)c(C(=O)O)s2)S(=O)(=O)N(C)[C@H](C2CCCCC2)CN3c2ccccc2)c1 [Example 506]
< 0.1	CN1[C@H](C2CCCCC2)CN(c2ccccc2)c2cc(OCC3CN(C(=O)OC(C)(C)C)C3)c(-c3cc(F)c(C(=O)O)s3)cc2S1(=O)=O [Example 509]
< 0.1	COCCOc1cc2c(cc1-c1cc(NC(=O)OCCOC(C)C)c(C(=O)O)s1)S(=O)(=O)N(C)[C@H](C1CCCCC1)CN2c1ccccc1 [Example 518, (R)-5-(3-cyclohexyl-7-(2-methoxyethoxy)-2-methyl-1,1-dioxido-5-phenyl-2,3,4,5-tetrahydrobenzo[f][1,2,5]thiadiazepin-8-yl)-3-(((2-isopropoxyethoxy)carbonyl)amino)thiophene-2-carboxylic acid]
0.1 to 1	CCCC[C@@H]1CN(c2ccccc2)c2cc(N3CCCC3)c(-c3cc(C(=O)O)n(C)n3)cc2S(=O)(=O)N1C [Example 521]
< 0.1	CCCC[C@@H]1CN(c2ccccc2)c2cc(N(C)C)c(-c3ccc(F)c(C(=O)O)c3)cc2S(=O)(=O)N1C [Example 524]
< 0.1	CN(C)c1cc2c(cc1-c1ccc(F)c(C(=O)O)c1)S(=O)(=O)N(C)[C@H](C1CCCCC1)CN2c1ccccc1 [Example 529]
> 1	CN1[C@H](C2CCCCC2)CN(c2ccccc2)c2cc(-n3ccccc3=O)c(-c3ccc(F)c(C(=O)O)c3)cc2S1(=O)=O [Example 530]
< 0.1	CO[C@H]1CCN(c2cc3c(cc2-c2ccc(F)c(C(=O)O)c2)S(=O)(=O)N(C)[C@H](C2CCCCC2)CN3c2ccccc2)C1 [Example 532]
0.1 to 1	CN1[C@H](C2CCCCC2)CN(c2ccccc2)c2cc(N3CC4(CCCC4)C3)c(-c3ccc(F)c(C(=O)O)c3)cc2S1(=O)=O [Example 533]
0.1 to 1	COC1CCN(c2cc3c(cc2-c2ccc(F)c(C(=O)O)c2)S(=O)(=O)N(C)[C@H](C2CCCCC2)CN3c2ccccc2)CC1 [Example 534]
0.1 to 1	CN1[C@H](C2CCCCC2)CN(c2ccccc2)c2cc(N3CCN(S(C)(=O)=O)CC3)c(-c3ccc(F)c(C(=O)O)c3)cc2S1(=O)=O [Example 536]
> 1	CCCC[C@H]1CN(c2ccccc2)c2cc(N3CCCC3)c(-c3cccc(C(=O)O)c3)cc2S(=O)(=O)N1C [Example 538]
> 1	CCCC[C@H]1CN(c2ccccc2)c2cc(N3CCCC3)c(-c3ccc(F)c(C(=O)O)c3)cc2S(=O)(=O)N1C [Example 543]
0.1 to 1	CC(C)CC1CN(c2ccccc2)c2cc(N3CCCC3)c(-c3cccc(C(=O)O)c3)cc2S(=O)(=O)N1C (stereo not drawn) [Example 544]
0.1 to 1	CC(C)C[C@@H]1CN(c2ccccc2)c2cc(Nc3cccc(F)c3)c(-c3ccc(Cl)c(C(=O)O)c3)cc2S(=O)(=O)N1C [Example 547]
0.1 to 1	CC(C)C[C@@H]1CN(c2ccccc2)c2cc(Nc3ccccn3)c(-c3ccc(Cl)c(C(=O)O)c3)cc2S(=O)(=O)N1C [Example 549]
> 1	CC(C)C[C@@H]1CN(c2ccccc2)c2cc(Nc3ccncc3)c(-c3ccc(Cl)c(C(=O)O)c3)cc2S(=O)(=O)N1C [Example 550]
0.1 to 1	CC(C)C[C@@H]1CN(c2ccccc2)c2cc(N3CCc4ccccc43)c(-c3ccc(Cl)c(C(=O)O)c3)cc2S(=O)(=O)N1C [Example 551]
< 0.1	CC(C)C[C@@H]1CN(c2ccccc2)c2cc(N3CCCCC3)c(-c3ccc(Cl)c(C(=O)O)c3)cc2S(=O)(=O)N1C [Example 552]
